# Reference: ChEMBL document CHEMBL1143360, “Synthesis and biological evaluation of curcuminoid pyrazoles as new therapeutic agents in inflammatory bowel disease: effect on matrix metalloproteinases” (Bioorg Med Chem, 2009)
# Calls of active or inactive are those of the source. The calls are words filed in the database; no cut-off is given here.
# What was measured:
# [1] = molecular target: T1, Matrix metalloproteinase-9 (Homo sapiens, UniProt P14780); test: Reduction of MMP9 activity in TNF-alpha/IL1-beta-stimulated human Caco-2 cells at 50 uM treated 1 hr before stimulation by zymography; assay type: cell-based
# [2] = molecular target: T1, Matrix metalloproteinase-9; test: Reduction of MMP9 activity in TNF-alpha/IL1-beta-stimulated human Caco-2 cells treated 1 hr before stimulation by zymography; assay type: cell-based
# T1 sequence (P14780 whole entry): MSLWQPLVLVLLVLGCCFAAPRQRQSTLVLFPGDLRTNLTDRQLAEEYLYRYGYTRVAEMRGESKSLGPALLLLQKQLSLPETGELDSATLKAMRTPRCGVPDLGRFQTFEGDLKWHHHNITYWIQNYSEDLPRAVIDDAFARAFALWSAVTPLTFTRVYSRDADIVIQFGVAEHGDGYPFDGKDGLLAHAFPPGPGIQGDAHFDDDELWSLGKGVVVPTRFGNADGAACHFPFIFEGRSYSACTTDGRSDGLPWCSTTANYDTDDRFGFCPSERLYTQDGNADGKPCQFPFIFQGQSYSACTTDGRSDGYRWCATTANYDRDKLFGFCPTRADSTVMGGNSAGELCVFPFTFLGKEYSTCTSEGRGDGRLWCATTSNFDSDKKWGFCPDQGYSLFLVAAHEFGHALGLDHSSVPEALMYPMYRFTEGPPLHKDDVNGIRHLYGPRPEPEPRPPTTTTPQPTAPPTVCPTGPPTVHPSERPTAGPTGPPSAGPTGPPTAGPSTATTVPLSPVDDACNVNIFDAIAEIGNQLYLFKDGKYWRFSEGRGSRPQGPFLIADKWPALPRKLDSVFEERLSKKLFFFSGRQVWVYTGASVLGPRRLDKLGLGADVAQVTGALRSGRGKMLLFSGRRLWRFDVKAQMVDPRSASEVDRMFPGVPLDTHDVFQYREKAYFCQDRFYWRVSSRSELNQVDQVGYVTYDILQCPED
Activity [1],IC50 [2],Structure (SMILES)
Active,19.4 µM,COc1cc(/C=C/c2cc(/C=C/c3ccc(O)c(OC)c3)[nH]n2)ccc1O [CURCUMIN PYRAZOLE]
Active,8 µM,COc1cc(/C=C/c2n[nH]c(C)c2C)ccc1O
Active,17.6 µM,COc1cc(/C=C/c2cc(C)[nH]n2)ccc1O
–,8.5 µM,COc1cc(/C=C/C(=O)CC(=O)/C=C/c2ccc(O)c(OC)c2)ccc1O [CURCUMIN]
